The assay concerns the target TRPV1 (Rattus norvegicus (Rat), UniProt O35433). The assay can be described thus: Ca2+ fluorescence measurements in cultured rat dorsal root ganglia neurons (capsaicin-induced calcium uptake). Format: cell-based. Particulars: for inhibition at 0.3 µM: DRG neuron.
The mark [1] stands for this setting: Table 3, formula IF-H, 300 nM against calcium uptake induced by 30 nM capsaicin, rat DRG neurons, read-out: % inhibition at 300 nM.
[2] abbreviates: Table 1, formula IA-C, 300 nM against calcium uptake induced by 30 nM capsaicin, rat DRG neurons, read-out: % inhibition at 300 nM.
The mark [3] stands for this setting: 300 nM, rat DRG neurons, read-out: abolition of capsaicin response at 300 nM.
Where [4] appears, read: capsaicin-induced calcium uptake, rat DRG neurons, read-out: inhibition of the calcium uptake.
The mark [5] stands for this setting: Table 1, against capsaicin-evoked [Ca2+]i mobilization, rat DRG neurons, read-out: IC50.
The mark [6] stands for this setting: rat DRG neurons, read-out: IC50 against capsaicin-evoked [Ca2+]i mobilization.

Among the data in patent publication US10233177B2, “TRPV1 vanilloid receptor antagonists with a bicyclic portion” (Serentrix LLC, priority 2010, dated 2019) are inhibition and IC50 values, retold here.

Molecules are shown by their SMILES. Like-named read-outs stand apart in the source and are kept apart here.

Sequence of TRPV1 (O35433 whole entry): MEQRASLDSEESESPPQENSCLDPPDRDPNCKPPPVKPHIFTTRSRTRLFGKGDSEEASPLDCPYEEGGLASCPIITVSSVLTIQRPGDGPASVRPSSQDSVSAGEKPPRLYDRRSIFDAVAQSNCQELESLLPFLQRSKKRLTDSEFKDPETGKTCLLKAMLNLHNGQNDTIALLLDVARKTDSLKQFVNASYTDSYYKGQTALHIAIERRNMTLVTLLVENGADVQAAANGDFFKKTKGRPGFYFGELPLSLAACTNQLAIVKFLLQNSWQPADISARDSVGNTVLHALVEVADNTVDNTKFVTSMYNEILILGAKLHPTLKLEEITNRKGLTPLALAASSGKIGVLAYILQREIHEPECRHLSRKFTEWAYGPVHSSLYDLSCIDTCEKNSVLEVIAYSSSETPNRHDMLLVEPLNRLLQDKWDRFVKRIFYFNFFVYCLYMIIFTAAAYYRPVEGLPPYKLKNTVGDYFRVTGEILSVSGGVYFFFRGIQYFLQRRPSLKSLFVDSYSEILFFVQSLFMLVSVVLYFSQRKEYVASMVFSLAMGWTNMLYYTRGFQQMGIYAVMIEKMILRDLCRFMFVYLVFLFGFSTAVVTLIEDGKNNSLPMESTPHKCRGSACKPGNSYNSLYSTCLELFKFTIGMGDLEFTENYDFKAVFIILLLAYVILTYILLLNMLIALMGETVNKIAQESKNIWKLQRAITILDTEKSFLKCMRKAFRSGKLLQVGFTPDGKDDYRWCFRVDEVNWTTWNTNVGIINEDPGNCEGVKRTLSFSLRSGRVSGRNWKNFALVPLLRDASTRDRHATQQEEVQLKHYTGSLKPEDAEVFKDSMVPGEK

Consider `O=C(NCc1ccc(C(F)(F)F)cc1N1CCOCC1)c1cccc2oc(=O)[nH]c12` [Example 61, N-(4-(trifluoromethyl)-2-morpholinobenzyl)-2,3-dihydro-2-oxobenzo[d]oxazole-4-carboxamide], for which the inhibition at 0.3 µM under setting [1] amounted to 15%.

On to `O=C1COc2cccc(C(=O)NCc3ccc(C(F)(F)F)cc3)c2N1` [Example 62, N-(4-(trifluoromethyl)benzyl)-3,4-dihydro-3-oxo-2H-benzo[b][1,4]oxazine-5-carboxamide], for which the inhibition at 0.3 µM under setting [1] was found to be 8%.

In the case of `O=C1COc2cccc(C(=O)NCc3ccc(C(F)(F)F)cc3N3CCCCC3)c2N1` [Example 63, N-(4-(trifluoromethyl)-2-(piperidin-1-yl)benzyl)-3,4-dihydro-3-oxo-2H-benzo[b][1,4]oxazine-5-carboxamide], the inhibition at 0.3 µM under setting [1] amounted to 79%.

Turning to `O=C1COc2c(cccc2C(=O)NCc2ccc(C(F)(F)F)cc2N2CCCCC2)N1` [Example 64, N-(4-(trifluoromethyl)-2-(piperidin-1-yl)benzyl)-3,4-dihydro-3-oxo-2H-benzo[b][1,4]oxazine-8-carboxamide], the inhibition at 0.3 µM under setting [1] was 65%.

As for `O=C1COc2cccc(OC(=O)NCc3ccc(C(F)(F)F)cc3)c2N1` [Example 65, 3,4-dihydro-3-oxo-2H-benzo[b][1,4]oxazin-5-yl 4-(trifluoromethyl)benzylcarbamate], under “read-out: % inhibition at 300 nM”, the inhibition at 0.3 µM was determined as 4%.

As for `O=C(NCc1ccc(C(F)(F)F)nc1)Nc1cccc2[nH]c(=O)[nH]c12` [Example 66, 1-(2-oxo-1,3-dihydrobenzimidazol-4-yl)-3-[[6-(trifluoromethyl)-3-pyridyl]methyl]urea], the inhibition at 0.3 µM under setting [2] stood at 71%.

Usually IC50 stands for the point on the concentration scale where inhibition reaches its midpoint. With `CC(C)Oc1cc(C(F)(F)F)ccc1CNC(=O)Nc1cccc2[nH]c(=O)[nH]c12` [Example 67, 1-[[2-isopropoxy-4-(trifluoromethyl)phenyl]methyl]-3-(2-oxo-1,3-dihydrobenzimidazol-4-yl)urea], the inhibition at 0.3 µM runs as follows: under setting [3], approximately 100%; under setting [2], 100%; under setting [4], more than 80%. Further, under setting [5], the IC50 is 20 nM.

Take `CC(C)Oc1nc(C(F)(F)F)ccc1CNC(=O)Nc1cccc2[nH]c(=O)[nH]c12` [Example 68, 1-[[2-isopropoxy-6-(trifluoromethyl)-3-pyridyl]methyl]-3-(2-oxo-1,3-dihydrobenzimidazol-4-yl)urea]: the inhibition at 0.3 µM was 93% under setting [2] and more than 80% under setting [4].

On to `CN(C)c1nc(C(F)(F)F)ccc1CNC(=O)Nc1cccc2[nH]c(=O)[nH]c12` [Example 69, 1-[[2-dimethylamino-6-(trifluoromethyl)-3-pyridyl]methyl]-3-(2-oxo-1,3-dihydrobenzimidazol-4-yl)urea], for which the inhibition at 0.3 µM is 80% under setting [2] and more than 80% under setting [4]. Besides, under setting [5], the half-maximal inhibitory concentration (IC50) stood at 92 nM.

As for `CC(C)(C)c1ccc(CNC(=O)Nc2cccc3[nH]c(=O)[nH]c23)cc1` [Example 70, 1-[(4-tert-butylphenyl)methyl]-3-(2-oxo-1,3-dihydrobenzimidazol-4-yl)urea], the inhibition at 0.3 µM is, setting by setting: under setting [3], approximately 100%; under setting [2], 98%; under setting [4], more than 80%.

On to `CN(C)CCOc1nc(C(F)(F)F)ccc1CNC(=O)Nc1cccc2[nH]c(=O)[nH]c12` [Example 72, 1-[[2-(2-dimethylaminoethoxy)-6-(trifluoromethyl)-3-pyridyl]methyl]-3-(2-oxo-1,3-dihydrobenzimidazol-4-yl)urea], for which, under setting [2], the inhibition at 0.3 µM worked out at 40%. Besides, the IC50 under setting [5] was determined as 6 nM.

Turning to `CN(C)CCOc1cc(C(F)(F)F)ccc1CNC(=O)Nc1cccc2[nH]c(=O)[nH]c12` [Example 73, 1-[[2-(2-dimethylaminoethoxy)-4-(trifluoromethyl)phenyl]methyl]-3-(2-oxo-1,3-dihydrobenzimidazol-4-yl)urea], under setting [2], the inhibition at 0.3 µM stood at 25%. The IC50 by setting is: under setting [5], 1.8 nM; under setting [6], 0.1 nM.

Turning to `CC(C)(C)c1ccc(CNC(=O)Nc2cccc3[nH]c(=O)[nH]c23)c(Cl)c1` [Example 74, 1-[(4-tert-butyl-2-chloro-phenyl)methyl]-3-(2-oxo-1,3-dihydrobenzimidazol-4-yl)urea], the inhibition at 0.3 µM is, setting by setting: under setting [3], approximately 100%; under setting [2], 100%; under setting [4], more than 80%.

On to `CC(C)(C)c1ccc(CNC(=O)Nc2cccc3[nH]c(=O)[nH]c23)c(N2CCCC2)c1` [Example 75, 1-[(4-tert-butyl-2-pyrrolidin-1-yl-phenyl)methyl]-3-(2-oxo-1,3-dihydrobenzimidazol-4-yl)urea], for which the inhibition at 0.3 µM under setting [3] is approximately 100%, the inhibition at 0.3 µM under setting [2] was 100% and the inhibition at 0.3 µM under setting [4] is more than 80%. Further, the IC50 reads like this: under setting [5], 0.84 nM; under setting [6], 0.84 nM.

For `O=C1COc2c(cccc2NC(=O)NCc2ccc(C(F)(F)F)o2)N1` [Example 76, 1-(3-oxo-4H-1,4-benzoxazin-8-yl)-3-[[5-(trifluoromethyl)-2-furyl]methyl]urea], the inhibition at 0.3 µM under setting [2] stood at 40%.

`O=C1COc2c(cccc2NC(=O)NCc2ccc(C(F)(F)F)nc2)N1` [Example 77, 1-(3-oxo-4H-1,4-benzoxazin-8-yl)-3-[[6-(trifluoromethyl)-3-pyridyl]methyl]urea]: the inhibition at 0.3 µM under setting [2] was 71%.

In the case of `O=C1COc2c(cccc2NC(=O)NCc2ccc(C(F)(F)F)nc2N2CCCCC2)N1` [Example 78, 1-(3-oxo-4H-1,4-benzoxazin-8-yl)-3-[[2-(1-piperidyl)-6-(trifluoromethyl)-3-pyridyl]methyl]urea], the inhibition at 0.3 µM by setting is: under setting [3], approximately 100%; under setting [2], 100%; under setting [4], more than 80%. Moreover, under setting [6], the IC50 turned out to be 0.61 nM.

With `Cc1ccc(CNC(=O)Nc2cccc3c2OCC(=O)N3)cc1` [Example 79, 1-(3-oxo-4H-1,4-benzoxazin-8-yl)-3-(p-tolylmethyl)urea], the inhibition at 0.3 µM under setting [2] turned out to be 54%.

In the case of `Cc1ccc(CNC(=O)Nc2cccc3c2OCC(=O)N3)c(N2CCCCC2)n1` [Example 80, 1-[[6-methyl-2-(1-piperidyl)-3-pyridyl]methyl]-3-(3-oxo-4H-1,4-benzoxazin-8-yl)urea], the inhibition at 0.3 µM reads like this: under setting [3], approximately 100%; under setting [2], 95%; under setting [4], more than 80%.

As to `CC(C)Oc1cc(C(F)(F)F)ccc1CNC(=O)Nc1cccc2c1OCC(=O)N2` [Example 81, 1-[[2-isopropoxy-4-(trifluoromethyl)phenyl]methyl]-3-(3-oxo-4H-1,4-benzoxazin-8-yl)urea], the inhibition at 0.3 µM under setting [3] is approximately 100%, the inhibition at 0.3 µM under setting [2] was found to be 100% and the inhibition at 0.3 µM under setting [4] was more than 80%.

Consider `COc1nc(C(F)(F)F)ccc1CNC(=O)Nc1cccc2c1OCC(=O)N2` [Example 82, 1-[[2-methoxy-6-(trifluoromethyl)-3-pyridyl]methyl]-3-(3-oxo-4H-1,4-benzoxazin-8-yl)urea], for which the inhibition at 0.3 µM is 90% under setting [2] and more than 80% under setting [4]. Besides, the IC50 under setting [5] is 54 nM.

`O=C1COc2c(cccc2NC(=O)NCc2ccc(C(F)(F)F)cn2)N1` [Example 83, 1-(3-oxo-4H-1,4-benzoxazin-8-yl)-3-[[5-(trifluoromethyl)-2-pyridyl]methyl]urea]: under setting [2], the inhibition at 0.3 µM came to 57%.

With `Cc1ccc(CNC(=O)Nc2cccc3c2OCC(=O)N3)c(OC(C)C)c1` [Example 84, 1-[(2-isopropoxy-4-methyl-phenyl)methyl]-3-(3-oxo-4H-1,4-benzoxazin-8-yl)urea], the inhibition at 0.3 µM under setting [2] was found to be 61%.

As for `Cc1ccc(CNC(=O)Nc2cccc3c2OCC(=O)N3)c(OC(C)C)n1` [Example 85, 1-[(2-isopropoxy-6-methyl-3-pyridyl)methyl]-3-(3-oxo-4H-1,4-benzoxazin-8-yl)urea], the inhibition at 0.3 µM under setting [2] turned out to be 79%.

For `CN(C)c1nc(C(F)(F)F)ccc1CNC(=O)Nc1cccc2c1OCC(=O)N2` [Example 86, 1-[[2-dimethylamino-6-(trifluoromethyl)-3-pyridyl]methyl]-3-(3-oxo-4H-1,4-benzoxazin-8-yl)urea], the inhibition at 0.3 µM was approximately 100% under setting [3], 100% under setting [2] and more than 80% under setting [4]. Also, under setting [5], the IC50 worked out at 17 nM.

On to `O=C1COc2c(cccc2NC(=O)NCc2ccc(C(F)(F)F)nc2N2CCCC2)N1` [Example 87, 1-(3-oxo-4H-1,4-benzoxazin-8-yl)-3-[[2-pyrrolidin-1-yl-6-(trifluoromethyl)-3-pyridyl]methyl]urea], for which the inhibition at 0.3 µM under setting [3] is approximately 100%, the inhibition at 0.3 µM under setting [2] was 100% and the inhibition at 0.3 µM under setting [4] is more than 80%. In addition, the IC50 under setting [5] is 9 nM.

Turning to `O=C1COc2c(cccc2NC(=O)NCc2ccc(C(F)(F)F)cc2-n2ccnc2)N1` [Example 88, 1-[[2-(imidazol-1-yl)-4-(trifluoromethyl)phenyl]methyl]-3-(3-oxo-4H-1,4-benzoxazin-8-yl)urea], the inhibition at 0.3 µM under setting [2] turned out to be 75%.

Regarding `CC(C)(C)c1ccc(CNC(=O)Nc2cccc3c2OCC(=O)N3)cc1` [Example 89, 1-[(4-tert-butylphenyl)methyl]-3-(3-oxo-4H-1,4-benzoxazin-8-yl)urea], the inhibition at 0.3 µM is 92% under setting [2] and more than 80% under setting [4]. Besides, the IC50 under setting [5] amounted to 19.8 nM.

Turning to `Cc1ccc(CNC(=O)Nc2cccc3c2OCC(=O)N3)c(N2CCCC2)c1` [Example 90, 1-[(4-methyl-2-pyrrolidin-1-yl-phenyl)methyl]-3-(3-oxo-4H-1,4-benzoxazin-8-yl)urea], the inhibition at 0.3 µM under setting [2] was 47%.

For the compound `CN(C)CCOc1nc(C(F)(F)F)ccc1CNC(=O)Nc1cccc2c1OCC(=O)N2` [Example 91, 1-[[2-(2-dimethylaminoethoxy)-6-(trifluoromethyl)-3-pyridyl]methyl]-3-(3-oxo-4H-1,4-benzoxazin-8-yl)urea], the inhibition at 0.3 µM under setting [2] was 40%.
